Patent publication US12473294B2, “Selective modulators of mutant LRRK2 proteolysis and associated methods of use” (Arvinas Operations, Inc., priority 2020, dated 2025)

Assays:
G2019S LRRK2 = target: T1, G2019S LRRK2 (Homo sapiens, UniProt Q5S007, G2019S); test: LRRK2 degradation HiBit assay, G2019S LRRK2 tagged with a HiBit tag expressed in HEK293 cells; type: cell-based; details: 24 hours compound incubation; for Dmax: HEK293, HEK293 cells; for DC50: HEK293 cells
T1 construct: expressed in transfected cells; host or cells: HEK293 (ATCC CRL-1573)
Procedure, shortened: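 HEK293 cells were transiently transfected with G2019S LRRK2 carrying a C-terminal HiBit tag (ubiquitin promoter) plus firefly luciferase, then exposed to compound for 24 h at 37 °C. Dual luminescence gave the HiBit/luciferase ratio ×1000, normalised to DMSO. DC50 and Dmax were fitted per plate.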

wildtype LRRK2 = target: T2, wildtype LRRK2 (Homo sapiens, UniProt Q5S007); test: LRRK2 degradation HiBit assay, wildtype LRRK2 tagged with a HiBit tag in HEK293 cells; type: cell-based; details: 24 hours compound incubation, read-out: *WT DC50
T2 construct: endogenous in cells; host or cells: HEK293 with HiBit knocked in at the 3' end of the endogenous LRRK2 gene, stably expressing firefly luciferase
Procedure, shortened: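 HEK293 cells transiently co-transfected with ubiquitin-promoter-driven C-terminally HiBit-tagged wildtype LRRK2 plus firefly luciferase, then treated with compound for 24 h at 37° C. HiBit/luciferase ratio ×1000 normalized to DMSO median; DC50 and Dmax fitted per plate, six replicates across two days.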

T1 sequence (Q5S007 whole entry G2019S): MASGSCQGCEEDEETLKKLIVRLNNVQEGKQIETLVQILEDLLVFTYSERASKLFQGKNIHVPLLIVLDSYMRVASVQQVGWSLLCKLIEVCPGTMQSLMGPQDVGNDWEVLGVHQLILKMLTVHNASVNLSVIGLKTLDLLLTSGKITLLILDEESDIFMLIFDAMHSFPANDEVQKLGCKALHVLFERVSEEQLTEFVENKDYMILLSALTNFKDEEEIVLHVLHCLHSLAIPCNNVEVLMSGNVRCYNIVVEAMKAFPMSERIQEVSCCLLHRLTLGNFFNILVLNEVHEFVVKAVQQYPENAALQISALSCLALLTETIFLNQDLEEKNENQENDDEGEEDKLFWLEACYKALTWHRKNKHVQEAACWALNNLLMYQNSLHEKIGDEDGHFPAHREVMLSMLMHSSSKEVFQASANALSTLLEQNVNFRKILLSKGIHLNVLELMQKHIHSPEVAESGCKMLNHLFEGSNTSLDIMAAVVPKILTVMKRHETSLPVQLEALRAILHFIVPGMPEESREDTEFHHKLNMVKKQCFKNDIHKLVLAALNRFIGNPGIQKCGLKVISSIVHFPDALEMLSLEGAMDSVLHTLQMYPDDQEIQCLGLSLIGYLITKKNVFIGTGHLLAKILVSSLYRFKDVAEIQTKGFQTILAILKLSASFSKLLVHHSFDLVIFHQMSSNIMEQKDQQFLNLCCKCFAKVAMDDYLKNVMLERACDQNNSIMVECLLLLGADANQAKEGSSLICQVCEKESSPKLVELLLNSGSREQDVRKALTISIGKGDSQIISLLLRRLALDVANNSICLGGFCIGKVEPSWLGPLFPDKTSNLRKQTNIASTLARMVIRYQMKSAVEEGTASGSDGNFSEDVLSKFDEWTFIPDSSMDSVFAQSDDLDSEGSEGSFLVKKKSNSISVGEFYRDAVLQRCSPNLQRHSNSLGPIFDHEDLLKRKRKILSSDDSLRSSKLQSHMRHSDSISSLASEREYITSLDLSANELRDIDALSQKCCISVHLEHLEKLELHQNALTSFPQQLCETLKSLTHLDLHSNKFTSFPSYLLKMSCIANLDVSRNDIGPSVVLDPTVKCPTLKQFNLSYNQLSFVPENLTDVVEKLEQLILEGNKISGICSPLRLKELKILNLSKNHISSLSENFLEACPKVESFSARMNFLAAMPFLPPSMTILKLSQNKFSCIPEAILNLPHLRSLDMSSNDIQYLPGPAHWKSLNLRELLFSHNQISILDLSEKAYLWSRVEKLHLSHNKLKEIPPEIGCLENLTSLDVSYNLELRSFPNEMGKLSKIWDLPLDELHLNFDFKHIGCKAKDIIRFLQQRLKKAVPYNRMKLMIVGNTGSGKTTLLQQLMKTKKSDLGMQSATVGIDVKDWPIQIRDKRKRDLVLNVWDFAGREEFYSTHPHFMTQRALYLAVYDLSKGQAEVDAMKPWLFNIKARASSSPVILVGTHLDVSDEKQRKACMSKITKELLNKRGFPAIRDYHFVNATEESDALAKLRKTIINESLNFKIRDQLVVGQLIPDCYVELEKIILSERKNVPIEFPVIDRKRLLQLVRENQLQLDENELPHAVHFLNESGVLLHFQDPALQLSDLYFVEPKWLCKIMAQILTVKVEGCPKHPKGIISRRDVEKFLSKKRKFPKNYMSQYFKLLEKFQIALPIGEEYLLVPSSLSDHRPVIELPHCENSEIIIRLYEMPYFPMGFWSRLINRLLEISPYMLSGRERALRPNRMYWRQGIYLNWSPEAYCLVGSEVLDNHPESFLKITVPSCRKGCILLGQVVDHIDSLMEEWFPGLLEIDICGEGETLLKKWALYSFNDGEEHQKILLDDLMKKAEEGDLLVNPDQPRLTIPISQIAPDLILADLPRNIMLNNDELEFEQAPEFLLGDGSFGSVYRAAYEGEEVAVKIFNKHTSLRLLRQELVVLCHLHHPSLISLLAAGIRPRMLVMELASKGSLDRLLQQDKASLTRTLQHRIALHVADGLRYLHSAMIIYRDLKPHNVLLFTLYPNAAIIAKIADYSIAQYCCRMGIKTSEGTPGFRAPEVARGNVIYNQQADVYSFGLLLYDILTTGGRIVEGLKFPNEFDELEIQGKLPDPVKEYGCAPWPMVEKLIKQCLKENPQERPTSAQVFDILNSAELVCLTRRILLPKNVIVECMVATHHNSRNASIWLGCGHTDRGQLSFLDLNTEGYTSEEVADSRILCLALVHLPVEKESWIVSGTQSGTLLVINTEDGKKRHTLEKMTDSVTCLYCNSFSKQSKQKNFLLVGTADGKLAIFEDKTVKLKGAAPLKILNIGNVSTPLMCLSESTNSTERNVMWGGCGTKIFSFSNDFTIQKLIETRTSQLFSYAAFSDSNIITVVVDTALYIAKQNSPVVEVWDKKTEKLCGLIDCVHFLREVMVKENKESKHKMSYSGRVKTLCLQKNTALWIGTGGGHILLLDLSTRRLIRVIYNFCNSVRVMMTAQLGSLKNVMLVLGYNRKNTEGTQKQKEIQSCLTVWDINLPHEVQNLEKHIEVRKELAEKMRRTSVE
T2 sequence (Q5S007 whole entry): as the sequence (Q5S007 whole entry G2019S) above, with S2019G counted along it

CC1=C(C(=O)Nc2ccc3[nH]nc(-c4ccnc(N5CCN(CC6CCN(CC7CCN(c8ccc9c(c8)C(=O)N(C8CCC(=O)NC8=O)C9=O)CC7)CC6)[C@@H](C)C5)c4)c3c2)C(C)(C)n2nnnc2N1C (stereo partly drawn) [compound 34, N-(3-{2-[(3S)-4-{[1-({1-[2-(2,6-dioxopiperidin-3-yl)-1,3-dioxo-2,3-dihydro-1H-isoindol-5-yl]piperidin-4-yl}methyl)piperidin-4-yl]methyl}-3-methylpiperazin-1-yl]pyridin-4-yl}-1H-indazol-5-yl)-4,5,7,7-tetramethyl-4H,7H-[1,2,3,4]tetrazolo[1,5-a]pyrimidine-6-carboxamide] showed a Dmax (G2019S LRRK2) of less than 50%, a DC50 (G2019S LRRK2) of 0.01 to 0.05 µM and a DC50 (wildtype LRRK2) of no less than 0.1 µM.

CC1=C(C(=O)Nc2ccc3[nH]nc(-c4ccnc(N5CCN(CCN6CCN(CC7CCN(c8ccc9c(c8)C(=O)N(C8CCC(=O)NC8=O)C9=O)CC7)CC6)CC5)c4)c3c2)C(C)(C)n2nnnc2N1C (stereo not drawn) [compound 35, N-{3-[2-(4-{2-[4-({1-[2-(2,6-dioxopiperidin-3-yl)-1,3-dioxo-2,3-dihydro-1H-isoindol-5-yl]piperidin-4-yl}methyl)piperazin-1-yl]ethyl}piperazin-1-yl)pyridin-4-yl]-1H-indazol-5-yl}-4,5,7,7-tetramethyl-4H,7H-[1,2,3,4]tetrazolo[1,5-a]pyrimidine-6-carboxamide] gave a Dmax (G2019S LRRK2) of less than 50%, a DC50 (G2019S LRRK2) of 0.01 to 0.05 µM and a DC50 (wildtype LRRK2) of no less than 0.1 µM.

Molecule CC1=C(C(=O)Nc2ccc3[nH]nc(-c4ccnc(N5CCN(CCN6CCC(CN7CCN(c8ccc9c(c8)C(=O)N(C8CCC(=O)NC8=O)C9=O)CC7)CC6)[C@@H](C)C5)c4)c3c2)C(C)(C)n2nnnc2N1C (stereo partly drawn) [compound 36, N-(3-{2-[(3S)-4-{2-[4-({4-[2-(2,6-dioxopiperidin-3-yl)-1,3-dioxo-2,3-dihydro-1H-isoindol-5-yl]piperazin-1-yl}methyl)piperidin-1-yl]ethyl}-3-methylpiperazin-1-yl]pyridin-4-yl}-1H-indazol-5-yl)-4,5,7,7-tetramethyl-4H,7H-[1,2,3,4]tetrazolo[1,5-a]pyrimidine-6-carboxamide] has a Dmax (G2019S LRRK2) of less than 50%, a DC50 (G2019S LRRK2) of no less than 0.1 µM and a DC50 (wildtype LRRK2) of no less than 0.1 µM.
